Holding throughout (assay): biochemical
Parameters in all cases: Invitrogen SelectScreen kinase panel, percent inhibition at 1 uM, ATP at Km
Common to all, as to details: read-out: Invitrogen KSS %Inh at 1 µM

The target of one experiment is FGFR1 (Homo sapiens, UniProt P11362). How it is done:
(§1) The METi and RAFi were screened against kinase panels (SelectScreen, Invitrogen; University of Dundee, Division of Signal Transduction Therapy, UK; Upstate Biotechnology/Millipore, Billerica, MA). In these selectivity assays the concentration of ATP was set to the Km value of ATP for each kinase tested to allow for a relative potency comparison between the various kinases. The compounds were tested at 1 µM final concentration. […] Supplementary file pone.0039653.s002.pdf: Figure S2 Kinase Selectivity Screen of RAFi. (A) Kinase selectivity screen (KSS) performed at University of Dundee (Division of Signal Transduction Therapy). Values in % inhibition of phosphorylation given 1 µM of RAFi compared to control. (B) KSS performed at Invitrogen (Selectscreen Service) compared to control. Values in % inhibition of phosphorylation given 1 µM of RAFi. (C) Cell based dose response kinase inhibition of indicated kinases by RAFi. (PDF) Click here for additional data file.

The next experiment addresses MINK1 (Homo sapiens, UniProt Q8N4C8). How it is done:
as §1

A further experiment concerns the target PLK2 (Homo sapiens, UniProt Q9NYY3). How it is done: as §1
The target of a further experiment is RET (Homo sapiens, UniProt P07949). How it is done: as §1
In a further experiment the target is MAP4K2 (GCK) (Homo sapiens, UniProt Q12851). How it is done: as §1
Another experiment addresses CLK1 (Homo sapiens, UniProt P49759). How it is done:
as §1

The target of the next experiment is RPS6KA5 (MSK1) (Homo sapiens, UniProt O75582). How it is done:
as §1

The target in another experiment is RPS6KA4 (MSK2) (Homo sapiens, UniProt O75676). How it is done: as §1
The next experiment addresses PTK6 (Brk) (Homo sapiens, UniProt Q13882). How it is done: as §1
The next experiment addresses PDGFRA (PDGFR alpha) (Homo sapiens, UniProt P16234). How it is done:
as §1

The next experiment has as its target MST1R (RON) (Homo sapiens, UniProt Q04912). How it is done: as §1
In a further experiment the target is PDGFRB (PDGFR beta) (Homo sapiens, UniProt P09619). How it is done:
as §1

Another experiment has as its target PTK2 (FAK) (Homo sapiens, UniProt Q05397). How it is done: as §1
Another experiment concerns the target FLT3 D835Y (Homo sapiens, UniProt P36888, D835Y). How it is done:
as §1

For another experiment, the target named is NEK2 (Homo sapiens, UniProt P51955). How it is done: as §1
The target of a further experiment is ABL1 T315I (Homo sapiens, UniProt P00519, T315I). How it is done: as §1
Another experiment concerns the target TEK (Tie2) (Homo sapiens, UniProt Q02763). How it is done:
as §1

A further experiment addresses BMX (Homo sapiens, UniProt P51813). How it is done:
as §1

For the next experiment, the target named is MARK1 (Homo sapiens, UniProt Q9P0L2). How it is done:
as §1

A further experiment concerns the target PRKACA (PKA) (Homo sapiens, UniProt P17612). How it is done: as §1
A further experiment concerns the target ERBB2 (HER2) (Homo sapiens, UniProt P04626). How it is done: as §1
The next experiment has as its target T1, CDC42 BPB (MRCKB) (Homo sapiens, UniProt Q9Y5S2).
T1 construct: gene CDC42BPB
How it is done:
as §1

Molecules are shown by their SMILES.

Sequence of RPS6KA5 (MSK1) (O75582 whole entry): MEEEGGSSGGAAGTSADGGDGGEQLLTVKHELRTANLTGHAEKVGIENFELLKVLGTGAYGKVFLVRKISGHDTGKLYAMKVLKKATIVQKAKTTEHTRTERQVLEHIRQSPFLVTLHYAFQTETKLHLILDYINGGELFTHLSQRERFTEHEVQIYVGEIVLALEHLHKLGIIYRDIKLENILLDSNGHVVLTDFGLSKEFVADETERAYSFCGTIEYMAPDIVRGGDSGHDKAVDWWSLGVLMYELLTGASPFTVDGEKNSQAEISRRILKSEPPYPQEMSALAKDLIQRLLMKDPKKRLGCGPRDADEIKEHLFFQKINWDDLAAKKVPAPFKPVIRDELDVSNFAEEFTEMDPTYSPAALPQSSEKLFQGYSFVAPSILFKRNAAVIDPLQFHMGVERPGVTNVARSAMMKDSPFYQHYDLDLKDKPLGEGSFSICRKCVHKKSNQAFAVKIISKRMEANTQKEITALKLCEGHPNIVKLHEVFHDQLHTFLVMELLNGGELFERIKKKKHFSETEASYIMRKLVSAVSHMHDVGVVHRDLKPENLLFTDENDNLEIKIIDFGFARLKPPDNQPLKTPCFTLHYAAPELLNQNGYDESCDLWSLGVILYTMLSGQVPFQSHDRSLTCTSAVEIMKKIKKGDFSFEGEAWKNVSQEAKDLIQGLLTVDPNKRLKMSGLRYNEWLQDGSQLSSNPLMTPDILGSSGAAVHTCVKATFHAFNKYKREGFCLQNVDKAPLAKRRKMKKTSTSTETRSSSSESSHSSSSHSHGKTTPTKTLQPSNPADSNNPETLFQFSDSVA
Sequence of PTK6 (Brk) (Q13882 whole entry): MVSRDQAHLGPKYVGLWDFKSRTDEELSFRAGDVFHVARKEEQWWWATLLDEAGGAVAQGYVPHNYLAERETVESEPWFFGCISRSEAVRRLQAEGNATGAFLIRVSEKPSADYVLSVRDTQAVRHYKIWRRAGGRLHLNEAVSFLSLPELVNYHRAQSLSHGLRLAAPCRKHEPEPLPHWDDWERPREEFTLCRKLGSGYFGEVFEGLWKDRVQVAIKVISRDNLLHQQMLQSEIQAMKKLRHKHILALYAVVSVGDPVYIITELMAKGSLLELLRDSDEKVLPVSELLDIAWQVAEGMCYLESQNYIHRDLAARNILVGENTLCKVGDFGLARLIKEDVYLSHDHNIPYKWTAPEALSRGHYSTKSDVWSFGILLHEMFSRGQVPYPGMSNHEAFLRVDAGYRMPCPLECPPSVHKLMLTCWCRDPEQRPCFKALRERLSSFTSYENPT
Sequence of BMX (P51813 whole entry): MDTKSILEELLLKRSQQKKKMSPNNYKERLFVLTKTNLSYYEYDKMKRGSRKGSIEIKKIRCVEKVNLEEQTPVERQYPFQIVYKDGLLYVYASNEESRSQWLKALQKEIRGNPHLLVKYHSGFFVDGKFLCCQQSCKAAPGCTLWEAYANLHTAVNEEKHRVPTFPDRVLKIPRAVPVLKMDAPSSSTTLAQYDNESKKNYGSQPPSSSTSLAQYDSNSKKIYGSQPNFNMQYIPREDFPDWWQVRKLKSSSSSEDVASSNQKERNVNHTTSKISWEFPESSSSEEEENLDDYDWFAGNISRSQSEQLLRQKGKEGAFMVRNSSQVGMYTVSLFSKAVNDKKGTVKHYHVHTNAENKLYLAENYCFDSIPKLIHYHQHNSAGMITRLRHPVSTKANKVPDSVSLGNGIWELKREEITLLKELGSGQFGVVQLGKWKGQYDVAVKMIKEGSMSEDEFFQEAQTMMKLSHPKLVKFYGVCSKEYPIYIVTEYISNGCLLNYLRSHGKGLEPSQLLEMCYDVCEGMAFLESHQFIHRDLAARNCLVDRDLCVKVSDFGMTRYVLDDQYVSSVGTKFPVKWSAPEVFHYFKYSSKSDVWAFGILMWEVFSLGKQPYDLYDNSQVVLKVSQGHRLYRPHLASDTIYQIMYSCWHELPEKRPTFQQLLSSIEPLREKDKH
Sequence of MARK1 (Q9P0L2 whole entry): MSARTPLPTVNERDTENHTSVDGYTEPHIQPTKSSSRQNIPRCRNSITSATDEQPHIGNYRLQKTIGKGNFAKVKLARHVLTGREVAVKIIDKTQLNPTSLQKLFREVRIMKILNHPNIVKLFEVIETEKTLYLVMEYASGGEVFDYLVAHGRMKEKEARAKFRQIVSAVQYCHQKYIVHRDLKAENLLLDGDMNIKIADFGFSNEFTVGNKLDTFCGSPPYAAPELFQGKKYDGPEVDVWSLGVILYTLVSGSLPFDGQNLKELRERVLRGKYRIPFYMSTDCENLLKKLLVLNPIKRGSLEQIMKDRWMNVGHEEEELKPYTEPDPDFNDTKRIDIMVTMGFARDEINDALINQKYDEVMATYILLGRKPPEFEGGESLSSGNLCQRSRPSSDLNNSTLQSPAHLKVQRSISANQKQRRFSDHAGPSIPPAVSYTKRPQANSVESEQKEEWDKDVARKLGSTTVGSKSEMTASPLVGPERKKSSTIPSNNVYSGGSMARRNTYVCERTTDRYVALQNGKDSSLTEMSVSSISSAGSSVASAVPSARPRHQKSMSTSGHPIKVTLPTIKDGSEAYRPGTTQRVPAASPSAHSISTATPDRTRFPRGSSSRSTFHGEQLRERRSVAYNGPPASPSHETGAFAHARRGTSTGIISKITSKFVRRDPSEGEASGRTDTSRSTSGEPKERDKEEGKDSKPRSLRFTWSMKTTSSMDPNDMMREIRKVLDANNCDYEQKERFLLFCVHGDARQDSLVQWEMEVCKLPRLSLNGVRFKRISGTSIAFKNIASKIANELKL
Sequence of PTK2 (FAK) (Q05397 whole entry): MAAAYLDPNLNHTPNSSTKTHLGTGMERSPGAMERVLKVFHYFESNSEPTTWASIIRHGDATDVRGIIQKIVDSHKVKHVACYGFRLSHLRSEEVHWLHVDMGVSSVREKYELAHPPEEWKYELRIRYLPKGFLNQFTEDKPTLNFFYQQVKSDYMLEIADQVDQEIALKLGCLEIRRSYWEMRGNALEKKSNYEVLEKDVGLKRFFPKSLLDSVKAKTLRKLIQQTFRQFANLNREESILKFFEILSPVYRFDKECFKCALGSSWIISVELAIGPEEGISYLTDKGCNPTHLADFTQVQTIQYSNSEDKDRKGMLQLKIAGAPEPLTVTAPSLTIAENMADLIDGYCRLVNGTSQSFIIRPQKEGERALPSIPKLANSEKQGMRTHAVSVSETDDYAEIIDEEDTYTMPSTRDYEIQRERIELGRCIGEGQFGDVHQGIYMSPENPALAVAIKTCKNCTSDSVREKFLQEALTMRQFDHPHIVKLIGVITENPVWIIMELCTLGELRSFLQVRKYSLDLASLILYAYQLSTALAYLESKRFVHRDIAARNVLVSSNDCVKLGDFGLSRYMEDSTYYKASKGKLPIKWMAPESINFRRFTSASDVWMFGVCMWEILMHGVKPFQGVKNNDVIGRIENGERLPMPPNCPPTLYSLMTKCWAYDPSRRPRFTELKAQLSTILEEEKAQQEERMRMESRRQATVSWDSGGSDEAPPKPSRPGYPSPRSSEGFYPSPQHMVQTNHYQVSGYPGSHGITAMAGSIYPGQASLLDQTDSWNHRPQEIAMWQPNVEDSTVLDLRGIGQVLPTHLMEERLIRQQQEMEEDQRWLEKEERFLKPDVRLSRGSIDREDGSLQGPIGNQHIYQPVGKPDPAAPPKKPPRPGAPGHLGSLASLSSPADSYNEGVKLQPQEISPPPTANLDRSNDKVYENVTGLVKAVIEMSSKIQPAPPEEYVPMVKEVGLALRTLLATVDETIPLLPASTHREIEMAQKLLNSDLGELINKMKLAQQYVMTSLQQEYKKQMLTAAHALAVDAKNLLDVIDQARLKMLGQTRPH
Sequence of PLK2 (Q9NYY3 whole entry): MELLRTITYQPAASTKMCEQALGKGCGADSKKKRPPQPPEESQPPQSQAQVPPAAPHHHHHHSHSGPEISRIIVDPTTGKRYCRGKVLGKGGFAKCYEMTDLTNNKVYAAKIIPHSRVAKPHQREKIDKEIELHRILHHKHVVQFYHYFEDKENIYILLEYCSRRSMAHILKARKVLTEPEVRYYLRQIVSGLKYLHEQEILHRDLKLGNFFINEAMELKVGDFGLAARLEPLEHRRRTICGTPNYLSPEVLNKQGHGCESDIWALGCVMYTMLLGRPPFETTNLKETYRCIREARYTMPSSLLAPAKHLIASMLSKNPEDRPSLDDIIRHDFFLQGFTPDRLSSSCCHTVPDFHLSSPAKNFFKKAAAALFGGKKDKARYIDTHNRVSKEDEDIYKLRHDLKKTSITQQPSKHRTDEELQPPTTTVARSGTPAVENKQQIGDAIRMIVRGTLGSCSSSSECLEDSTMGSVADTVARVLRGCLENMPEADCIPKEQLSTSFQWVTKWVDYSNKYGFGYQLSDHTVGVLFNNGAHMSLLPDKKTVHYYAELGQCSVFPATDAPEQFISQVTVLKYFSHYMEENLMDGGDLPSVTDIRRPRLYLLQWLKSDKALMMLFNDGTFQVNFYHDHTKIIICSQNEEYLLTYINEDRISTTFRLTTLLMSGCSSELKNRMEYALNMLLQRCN
Sequence of CLK1 (P49759 whole entry): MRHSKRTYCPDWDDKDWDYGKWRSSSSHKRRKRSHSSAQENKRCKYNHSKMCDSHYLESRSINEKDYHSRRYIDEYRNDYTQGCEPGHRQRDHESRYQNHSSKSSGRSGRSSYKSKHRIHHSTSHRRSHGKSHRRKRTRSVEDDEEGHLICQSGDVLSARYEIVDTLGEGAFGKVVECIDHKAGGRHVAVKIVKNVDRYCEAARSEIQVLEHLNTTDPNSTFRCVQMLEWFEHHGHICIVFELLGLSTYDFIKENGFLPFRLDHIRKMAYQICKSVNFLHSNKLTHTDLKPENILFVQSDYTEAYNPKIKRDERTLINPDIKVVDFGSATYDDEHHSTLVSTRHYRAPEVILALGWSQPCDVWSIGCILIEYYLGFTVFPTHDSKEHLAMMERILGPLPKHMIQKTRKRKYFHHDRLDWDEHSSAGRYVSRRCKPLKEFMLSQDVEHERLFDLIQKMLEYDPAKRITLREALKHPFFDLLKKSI

Take `N#CCCNc1nccc(-c2cn(CC(F)F)nc2-c2cnc3[nH]ccc3c2)n1` [RAFi, PF-04880594]: the inhibition at 1 µM at FGFR1 is 1%; on MINK1, 8%; on PLK2, 37%; on RET, 12%; at MAP4K2 (GCK), -12%; on CLK1 it was 1%. The inhibition at 1 µM at RPS6KA5 (MSK1) came to 3%; on RPS6KA4 (MSK2), 5%; at PTK6 (Brk), 5%; on PDGFRA (PDGFR alpha), 10%; on MST1R (RON), 2%; at PDGFRB (PDGFR beta), 2%. For the same molecule, the inhibition at 1 µM is 12% at PTK2 (FAK); 57% on FLT3 D835Y; 40% at NEK2; -21% on ABL1 T315I; 2% on TEK (Tie2); -3% at BMX. Moreover, the inhibition at 1 µM on MARK1 is 2%; on PRKACA (PKA) it was -1%; at ERBB2 (HER2), 10%; at CDC42 BPB (MRCKB), 21%.

The values above are taken from publication PMC3382171 (PLoS ONE, 2012).
